# Data published in the supplement of paper PMC10307832.
# Compound: CC(C)=CC[C@@H](O)C1=CC(=O)c2c(O)ccc(O)c2C1=O [Shikonin] + CC(=O)c1c(C)c2cnc(Nc3ccc(N4CCNCC4)cn3)nc2n(C2CCCC2)c1=O [Palbociclib] (partner 0.5 µM)
# Experiment: relative viability (nuclei count vs DMSO), 5 days (fraction); higher = more cells survive
# Conditions: first compound 1 µM
# How it was run: (§1)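 Lung cancer cell lines in 1536-well plates got either a single drug or a fixed anchor-drug dose together with five library-drug doses (not always all listed) in √10 steps, by pin tool, on the day after seeding. Nuclei were counted after 5 days, and relative viability is the treated-to-vehicle ratio of nuclei counts. Values are medians of duplicate plates.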
row,Cell Line,relative viability
1,HARA,0.248
2,SW 900,0.542
3,HCC-78,0.413
4,NCI-H441,0.231
5,LCLC-97TM1,0.23

# Compound: CC(C)=CC[C@@H](O)C1=CC(=O)c2c(O)ccc(O)c2C1=O [Shikonin] + COc1cccc2cc(-c3nc([C@H]4CC[C@H](C(=O)O)CC4)n4ncnc(N)c34)[nH]c12 [OSI-027] (partner 0.5 µM)
# Experiment: as above
# Conditions: first compound 0.01 µM
# How it was run: as §1
row,Cell Line,relative viability
1,NCI-H2342,0.597
2,NCI-H1623,0.397
3,PC-14,0.921
4,NCI-H1650,0.596
5,NCI-H2009,0.687
6,NCI-H1993,0.558
7,NCI-H520,0.288
8,PC-3 [JPC-3],0.851
9,LCLC-103H,0.541
10,NCI-H647,0.712
11,NCI-H2228,0.698
12,EMC-BAC-2,0.38
13,NCI-H2087,0.602
14,HCC-366,1.07
15,NCI-H1666,0.936
16,NCI-H650,0.612
17,LK-2,0.168
18,NCI-H2126,0.709
19,NCI-H1648,0.253
20,SK-MES-1,0.694

row,Cell Line,relative viability
1,H3255,0.591
2,COR-L23,0.854
3,COR-L 105,0.685
4,LOU-NH91,0.718
5,ChaGo-K-1,0.598
6,NCI-H2170,0.729
7,NCI-H3122,1.07
8,HOP-62,0.967
9,HCC-44,0.512
10,NCI-H522,0.566
11,LU99A,0.271
12,BEN,0.281
13,HARA,0.431
14,SW 900,0.575
15,HCC-78,0.338
16,NCI-H441,0.539
17,LCLC-97TM1,0.504
18,NCI-H596,0.584
19,NCI-H1563,0.678

# Same assay, conditions: first compound 0.1 µM
row,Cell Line,relative viability
1,NCI-H2342,0.589
2,NCI-H1623,0.428
3,PC-14,0.556
4,NCI-H1650,0.459
5,NCI-H2009,0.622
6,NCI-H1993,0.522
7,NCI-H520,0.243
8,PC-3 [JPC-3],0.746
9,LCLC-103H,0.54
10,NCI-H647,0.631
11,NCI-H2228,0.67
12,EMC-BAC-2,0.399
13,NCI-H2087,0.616
14,HCC-366,1.27
15,NCI-H1666,0.833
16,NCI-H650,0.555
17,LK-2,0.241
18,NCI-H2126,0.638
19,NCI-H1648,0.285
20,SK-MES-1,0.493

row,Cell Line,relative viability
1,H3255,0.596
2,COR-L23,0.778
3,COR-L 105,0.723
4,LOU-NH91,0.813
5,ChaGo-K-1,0.654
6,NCI-H2170,0.695
7,NCI-H3122,1.27
8,HOP-62,1.06
9,HCC-44,0.513
10,NCI-H522,0.729
11,LU99A,0.344
12,BEN,0.311
13,HARA,0.667
14,SW 900,0.616
15,HCC-78,0.377
16,NCI-H441,0.831
17,LCLC-97TM1,0.591
18,NCI-H596,0.968
19,NCI-H1563,0.714

# Same assay, conditions: first compound 0.3162 µM
row,Cell Line,relative viability
1,NCI-H2342,0.646
2,NCI-H1623,0.414
3,PC-14,1.06
4,NCI-H1650,0.392
5,NCI-H2009,0.52
6,NCI-H1993,0.561
7,NCI-H520,0.209
8,PC-3 [JPC-3],0.759
9,LCLC-103H,0.514
10,NCI-H647,0.666
11,NCI-H2228,0.615
12,EMC-BAC-2,0.39
13,NCI-H2087,0.66
14,HCC-366,1.14
15,NCI-H1666,0.862
16,NCI-H650,0.592
17,LK-2,0.203
18,NCI-H2126,0.735
19,NCI-H1648,0.285
20,SK-MES-1,0.742

row,Cell Line,relative viability
1,H3255,0.622
2,COR-L23,0.732
3,COR-L 105,0.613
4,LOU-NH91,0.786
5,ChaGo-K-1,0.665
6,NCI-H2170,0.782
7,NCI-H3122,1.03
8,HOP-62,1.03
9,HCC-44,0.466
10,NCI-H522,0.72
11,LU99A,0.265
12,BEN,0.298
13,HARA,0.521
14,SW 900,0.508
15,HCC-78,0.353
16,NCI-H441,0.619
17,LCLC-97TM1,0.675
18,NCI-H596,0.754
19,NCI-H1563,0.798

# Same assay, conditions: first compound 1 µM
row,Cell Line,relative viability
1,NCI-H2342,0.671
2,NCI-H1623,0.393
3,PC-14,0.9
4,NCI-H1650,0.487
5,NCI-H2009,0.257
6,NCI-H1993,0.582
7,NCI-H520,0.304
8,PC-3 [JPC-3],0.751
9,LCLC-103H,0.534
10,NCI-H647,0.602
11,NCI-H2228,0.639
12,EMC-BAC-2,0.386
13,NCI-H2087,0.502
14,HCC-366,0.859
15,NCI-H1666,0.966
16,NCI-H650,0.568
17,LK-2,0.227
18,NCI-H2126,0.67
19,NCI-H1648,0.26
20,SK-MES-1,0.519

row,Cell Line,relative viability
1,H3255,0.475
2,COR-L23,0.729
3,COR-L 105,0.611
4,LOU-NH91,0.726
5,ChaGo-K-1,0.662
6,NCI-H2170,0.777
7,NCI-H3122,1.06
8,HOP-62,0.826
9,HCC-44,0.747
10,NCI-H522,0.809
11,LU99A,0.305
12,BEN,0.324
13,HARA,0.521
14,SW 900,0.569
15,HCC-78,0.401
16,NCI-H441,0.624
17,LCLC-97TM1,0.579
18,NCI-H596,0.679
19,NCI-H1563,0.769
